Reference: PMC11725774 (Cancer Research Communications, 2025)
Read-outs that look alike come from different tables or passages of the source.

Assays:
MOLM-14 cells (parental) = experiment: Growth inhibition of AML cell line; type: cell-based, human
Method: (§1) MV-4-11 cells expressing NRAS^G12D were prepared by transduction with a lentiviral vector encoding the NRAS^G12D mutation. Assays using a panel of parental Ba/F3 into which an additional copy of either WT or a mutant form of FLT3 was introduced were performed at Kyinno Biotechnology Co., Ltd. All cell lines were short tandem repeat authenticated at ATCC or at DSMZ when originally obtained, and no further authentication was done after receipt of the cells in the laboratory.
(§2) Assays using Ba/F3 cells expressing WT and mutant forms of FLT3 were performed by Kyinno Biotechnology. The cells were cultured in the medium recommended by the source for each cell line. Growth inhibition assays were performed using either Cell Titer 96 Aqueous One Solution Cell Proliferation assay (Promega, # G3581) or CCK8 (Dojindo, # CK-04). […] IC50 values were determined from growth inhibition curves fitted using GraphPad Prism and a nonlinear regression model with sigmoidal dose response. Unless otherwise indicated, data are presented as mean ± SEM.

TUS/R line 3 (MOLM-14) = experiment: Growth inhibition of TUS-resistant subline; type: cell-based, human; details: for GI50: mean ± SEM (Supplementary Table 6)
TUS/R line 4 (MOLM-14) = experiment: Growth inhibition of TUS-resistant subline; type: cell-based, human; details: for GI50: mean ± SEM (Supplementary Table 6)
MV-4-11 cells = experiment: Growth inhibition of AML cell line; type: cell-based, human
Method: as §1, §2

TUS/R MOLM-14 cells = experiment: Growth inhibition of TUS-resistant sublines versus parental; type: cell-based, human
[1] = tested on: MV-4-11 NRAS G12D Clone 1; experiment: Growth inhibition of NRAS G12D clone; type: cell-based, human; details: for GI50: MV-4-11 NRAS G12D, mean ± SEM
Method: as §1, §2

[2] = tested on: MV-4-11 NRAS G12D Clone 4; experiment: Growth inhibition of NRAS G12D clone; type: cell-based, human
Method: as §1, §2

[3] = tested on: MV-4-11 NRAS G12D Clone 15; experiment: Growth inhibition of NRAS G12D clone; type: cell-based, human; details: for GI50: MV-4-11 NRAS G12D, mean ± SEM
Method: as §1, §2

MOLM-13 cells = experiment: Growth inhibition of AML cell line; type: cell-based; details: Homo sapiens, mean ± SD
Method: as §1, §2

Ba/F3 cells FLT3 ITD = experiment: Growth inhibition of Ba/F3 cells; type: cell-based, murine; details: Mus musculus, BaF3; Ba/F3 FLT3 ITD; mean ± SD; read-out: GI50
Method: as §1, §2

[4] = tested on: Ba/F3 cells FLT3 ITD/D835Y; experiment: Growth inhibition of Ba/F3 cells; type: cell-based, murine; details: Mus musculus, BaF3; Ba/F3 FLT3 ITD/D835Y; mean ± SD; read-out: GI50
Method: as §1, §2

Ba/F3 cells FLT3 WT = experiment: Growth inhibition of Ba/F3 cells; type: cell-based, murine; details: Mus musculus, BaF3; Ba/F3 FLT3 WT; mean ± SD; read-out: GI50
Method: as §1, §2

[5] = tested on: Ba/F3 cells FLT3 ITD/F691L; experiment: Growth inhibition of Ba/F3 cells; type: cell-based, murine; details: Mus musculus, BaF3; Ba/F3 FLT3 ITD/F691L; mean ± SD; read-out: GI50
Method: as §1, §2

Ba/F3 cells FLT3 D835Y = experiment: Growth inhibition of Ba/F3 cells; type: cell-based, murine; details: Mus musculus, BaF3; Ba/F3 FLT3 D835Y; mean ± SD; read-out: GI50
Method: as §1, §2

FLT3 D835Y = FLT3 D835Y (Homo sapiens, UniProt P36888, D835Y); experiment: Biochemical enzyme activity screening assay; details: kinase FLT3 D835Y; mean ± SD
[6] = tested on: p-JAK1, p-JAK2, p-STAT3, p-STAT5 in MOLM-14 cells cocultured with HS-5 cells; experiment: HS-5 stromal coculture Western blot; type: cell-based, human; details: concentrations <1 μmol/L; MOLM-14 cocultured with HS-5
Method: Cells were treated as described in respective Results sections and then lysed with RIPA buffer. Western blot analyses were performed with antibodies capable of detecting both total and phosphorylated forms of each kinase purchased from commercial sources. Information on the antibodies used is provided in the Supplementary Materials section.
HS-5 cells were obtained from ATCC. The HS-5 stromal cells (5 × 10^5 cells/well) were seeded into six-well plates, and 24 hours later, MOLM-14 cells (1 × 10^6 cells/well) were seeded into the same plate and then cultured for 48 hours. Cultures were then exposed to test drugs for 2 hours, harvested, and lysates were prepared for Western blotting. For stimulation studies, MOLM-14 or KG-1a cells were seeded at 5.0 to 6.0 × 10^6 cells/well into six-well plates in 2 mL medium. Cells were stimulated with 500 μg/mL fibrinogen (Sigma-Aldrich, Catalog # F3879) for 1 hour at 37°C. Alternatively, they were treated with 10 μg/mL IgG (Invitrogen, Catalog # 31154) for 10 minutes on ice followed by IgG cross-linking with 1 μg/mL anti–human IgG antibody for 10 minutes on ice. After these incubations, the media were removed and the cells were washed with cold PBS, lysed, and analyzed by Western blotting.

TUS/R line 1 (MOLM-14) = experiment: Growth inhibition of TUS-resistant subline; type: cell-based; details: Homo sapiens, MOLM-14, read-out: IC50 (nmol/L), Mean ± SEM, TUS/R line 1
TUS/R line 2 (MOLM-14) = experiment: Growth inhibition of TUS-resistant subline; type: cell-based; details: Homo sapiens, MOLM-14, read-out: IC50 (nmol/L), Mean ± SEM, TUS/R line 2
[7] = Homo sapiens, MOLM-14, mean ± SEM (Supplementary Table 6), read-out: GI50 (nM) Parental MOLM-14 (converted)
[8] = Homo sapiens, MOLM-14, read-out: GI50 (nM) TUS/R line 3
[9] = Homo sapiens, MOLM-14, read-out: GI50 (nM) TUS/R line 4
[10] = Homo sapiens, MV4-11, mean ± SEM (Supplementary Table 7), read-out: GI50 (nM) Parental (MV-4-11)
[11] = Homo sapiens, MV4-11, MV-4-11 NRAS G12D, high expression, mean ± SEM, read-out: GI50 (nM) Clone 4
[12] = Homo sapiens, MOLM-14, mean ± SD (Supplementary Table 4), read-out: GI50
[13] = Homo sapiens, MV4-11, MV-4-11, mean ± SD (Supplementary Table 4), read-out: GI50
[14] = 13 to […]-fold increase in NRAS G12D expression

SMILES | GI50 (MOLM-14 cells (parental); [7]) [nM] | GI50 (TUS/R line 3 (MOLM-14); [8]) [nM] | GI50 (TUS/R line 4 (MOLM-14); [9]) [nM] | GI50 (MV-4-11 cells; [10]) [nM] | fold hypersensitive, TUS/R versus parental MOLM-14 (TUS/R MOLM-14 cells) | GI50 ([1]; Homo sapiens, MV4-11) [nM] | GI50 [2, 11] [nM] | GI50 ([3]; Homo sapiens, MV4-11) [nM] | other results
Nc1ncn([C@@H]2O[C@H](CO)[C@@H](O)[C@H]2O)c(=O)n1 [5-Azacytidine, 5-azacytidine] | 2140 ± 231 | 1620 ± 294 | 1580 ± 145 | – | – | – | – | – | –
Cc1c2c(nn1C)CSCc1cc(n(C)n1)CSc1cc(c3ccccc3c1)OCCCc1c(C(=O)O)n(C)c3c-2c(Cl)ccc13 [AZD5991] | 168 ± 33.7 | 22.8 ± 2.7 | 18.2 ± 1.6 | 32.5 ± 5.4 | ~8 fold | 10.1 ± 3.2 | 44.3 ± 8.3 | 7.2 ± 0.4 | –
Cc1ccc2c(Nc3cccc(Cl)c3F)nccc2c1NC(=O)c1csc2c(N)ncnc12 [Belvarafenib, belvarafenib] | – | – | – | 750 ± 92.8 | – | 187 ± 38.6 | 209 ± 33.9 | 104 ± 11.1 | –
Cn1c(=O)n(-c2ccc(C(C)(C)C#N)cc2)c2c3cc(-c4cnc5ccccc5c4)ccc3ncc21 [Dactolisib, dactolisib] | 21.3 ± 1.4 | 28.9 ± 2.7 | 26.8 ± 1.8 | – | not more sensitive | – | – | – | –
COc1cc(Nc2ncc(F)c(Nc3ccc4c(n3)N(COP(=O)(O)O)C(=O)C(C)(C)O4)n2)cc(OC)c1OC [Fostamatinib, fostamatinib] | – | 176 ± 32.9 | 459 ± 86.2 | – | not more sensitive | – | – | – | –
CCc1nc(C(N)=O)c(Nc2ccc(N3CCC(N4CCN(C)CC4)CC3)c(OC)c2)nc1NC1CCOCC1 [Gilteritinib, gilteritinib] | 8.6 | 118 | 128 | 2.4 ± 0.7 | – | 3.3 ± 0.7 | 51 ± 12.2 | 5.6 ± 1.1 | GI50 (MOLM-13 cells): 8.4 ± 2.9 nM; GI50 (Ba/F3 cells FLT3 ITD): 1.2 ± 0.2 nM; GI50 [4]: 4.4 ± 0.6 nM; GI50 (Ba/F3 cells FLT3 WT): 7 ± 1.5 nM; GI50 [5]: 33 ± 6.2 nM; GI50 (Ba/F3 cells FLT3 D835Y): 2.3 ± 0.7 nM; GI50 (FLT3 D835Y): 0.5 ± 0.1 nM; inhibition of p-JAK1, p-JAK2, p-STAT3, or p-STAT5 [6]: Neither TUS nor gilteritinib inhibited; GI50 (MOLM-14 cells (parental); [12]): 6.1 ± 2.8 nM; GI50 (MV-4-11 cells; [13]): 2 ± 0.2 nM
Cc1cnc(-c2ccc(-c3ccc(NC(=O)Nc4c(F)cc(F)cc4F)cc3F)c3c2C(=O)NC3)[nH]1 [Luxeptinib] | 0.2 ± 0.01 | 0.1 ± 0.01 | 0.1 ± 0.01 | – | – | – | – | – | –
CO[C@@H]1[C@H](N(C)C(=O)c2ccccc2)C[C@H]2O[C@]1(C)n1c3ccccc3c3c4c(c5c6ccccc6n2c5c31)C(=O)NC4 [Midostaurin, midostaurin] | – | – | – | – | – | – | – | – | GI50 (MOLM-13 cells): 19 ± 14 nM; GI50 (Ba/F3 cells FLT3 ITD): 5.1 ± 0.1 nM; GI50 [4]: 21 ± 1.1 nM; GI50 [5]: 16 ± 3.5 nM; GI50 (Ba/F3 cells FLT3 D835Y): 9 ± 2.7 nM; GI50 (MOLM-14 cells (parental); [12]): 12 ± 7.1 nM; GI50 (MV-4-11 cells; [13]): 6 ± 1.4 nM
CC1(C)CCC(c2ccc(Cl)cc2)=C(CN2CCN(c3ccc(C(=O)NS(=O)(=O)c4ccc(N[C@H](CCN5CCOCC5)CSc5ccccc5)c(S(=O)(=O)C(F)(F)F)c4)cc3)CC2)C1 [Navitoclax, navitoclax] | 410 ± 50.2 | 15.3 ± 2.4 | 15 ± 2.1 | – | ~27 fold | – | – | – | –
COC1=CC(c2cc3ccccc3[nH]2)=N/C1=C\c1[nH]c(C)cc1C [Obatoclax, obatoclax] | 98.2 ± 7.7 | 164 ± 14.7 | 142 ± 9.1 | – | no increase in sensitivity | – | – | – | –
CC(C)(C)c1cc(NC(=O)Nc2ccc(-c3cn4c(n3)sc3cc(OCCN5CCOCC5)ccc34)cc2)no1 [Quizartinib, quizartinib] | 0.5 ± 0.02 | 0.2 ± 0.1 | 0.5 ± 0.1 | 0.5 ± 0.1 | – | 1.1 ± 0.2 | – | 1.3 ± 0.4 | GI50 (MOLM-13 cells): 0.9 ± 0.5 nM; GI50 (MOLM-14 cells (parental); [12]): 0.6 ± 0.2 nM; GI50 (MV-4-11 cells; [13]): 0.2 ± 0.1 nM; GI50 ([2]; Homo sapiens, MV4-11, read-out: GI50 (nM) Clone 4): 1.9 ± 0.5 nM
N#CC[C@H](C1CCCC1)n1cc(-c2ncnc3[nH]ccc23)cn1 [Ruxolitinib, ruxolitinib] | – | ~1100 | ~1130 | – | – | – | – | – | –
Cc1c(-c2c(-c3ccc(F)o3)sc3ncnc(O[C@H](Cc4ccccc4OCc4ccnn4CC(F)(F)F)C(=O)O)c23)ccc(OCCN2CCN(C)CC2)c1Cl [S63845] | – | – | – | – | ~20 fold | – | – | – | GI50 (MOLM-14 cells (parental); mean ± SEM (Supplementary Table 6), read-out: GI50 (nM) Parental MOLM-14 (converted)): 105 ± 19.8 nM; GI50 (MV-4-11 cells; mean ± SEM (Supplementary Table 7), read-out: GI50 (nM) Parental (MV-4-11)): 4.6 ± 0.4 nM; GI50 (TUS/R line 3 (MOLM-14); read-out: GI50 (nM) TUS/R line 3): 5.6 ± 0.7 nM; GI50 (TUS/R line 4 (MOLM-14); read-out: GI50 (nM) TUS/R line 4): 4.6 ± 0.3 nM; GI50 [1]: 1.1 ± 0.3 nM; GI50 ([2]; MV-4-11 NRAS G12D, high expression, mean ± SEM, read-out: GI50 (nM) Clone 4): 7.3 ± 1.5 nM; GI50 [3]: 1.5 ± 0.1 nM
CC(=O)Nc1cccc(-n2c(=O)n(C3CC3)c(=O)c3c(Nc4ccc(I)cc4F)n(C)c(=O)c(C)c32)c1 [Trametinib, trametinib] | 153 ± 14.5 | 67 ± 12.8 | 101.5 ± 0.4 | 6.7 ± 1.6 | ~1.9 fold | 1.6 ± 0.4 | 2.5 ± 0.7 | 2.3 ± 0.8 | –
CC1(C)CCC(CN2CCN(c3ccc(C(=O)NS(=O)(=O)c4ccc(NCC5CCOCC5)c([N+](=O)[O-])c4)c(Oc4cnc5[nH]ccc5c4)c3)CC2)=C(c2ccc(Cl)cc2)C1 [Venetoclax, venetoclax] | – | – | – | 10.5 ± 1.7 | – | 5.5 ± 1.4 | 2260 ± 156 | 4.9 ± 1.3 | IC50 (TUS/R line 1 (MOLM-14)): 1.3 ± 0.1 nmol/L; IC50 (MOLM-14 cells (parental); Homo sapiens, MOLM-14, growth inhibition, three independent experiments, read-out: IC50 (nmol/L), Mean ± SEM, MOLM-14 parental): 3020 ± 464 nmol/L; IC50 (TUS/R line 3 (MOLM-14); Homo sapiens, MOLM-14, read-out: IC50 (nmol/L), Mean ± SEM, TUS/R line 3): 1.1 ± 0.2 nmol/L; IC50 (TUS/R line 4 (MOLM-14); Homo sapiens, MOLM-14, read-out: IC50 (nmol/L), Mean ± SEM, TUS/R line 4): 5 ± 0.8 nmol/L; IC50 (TUS/R line 2 (MOLM-14)): 1.5 ± 0.05 nmol/L; change in sensitivity, clone 1 [1, 14]: did not alter sensitivity; fold resistant / loss of sensitivity, clone 4 versus parental MV-4-11 ([2]; high NRAS G12D expression): 214 fold; change in sensitivity, clone 15 [3, 14]: did not alter sensitivity
